Columns and labels:
Format in all cases: in vivo
[1] = tested on: yellow fever mosquito (Aedes aegypti); test: whole plant or invertebrate; conditions: 48 h, larval mortality visually assessed after 2 days, read-out: mortality in comparison with untreated controls
Method: For evaluating control of yellow fever mosquito (Aedes aegypti) the test unit consisted of 96-well-microtiter plates containing 200 μl of tap water per well and 5-15 freshly hatched A. aegypti larvae.
The active compounds were formulated using a solution containing 75% (v/v) water and 25% (v/v) DMSO. Different concentrations of formulated compounds or mixtures were sprayed onto the insect diet at 2.5 μl, using a custom built micro atomizer, at two replications.
After application, microtiter plates were incubated at 28±1° C., 80±5% RH for 2 days. Larval mortality was then visually assessed.

[2] = tested on: Orchid thrips (Dichromothrips corbetti); test: Action on orchid thrips (Dichromothrips corbetti), floral-immersion technique; conditions: adult thrips, mortality 72 hours after treatment, read-out: mortality in comparison with untreated controls
Method: Dichromothrips corbetti adults used for bioassay were obtained from a colony maintained continuously under laboratory conditions. For testing purposes, the test compound is diluted in a 1:1 mixture of acetone:water (vol:vol), plus Kinetic® HV at a rate of 0.01% v/v.
Thrips potency of each compound was evaluated by using a floral-immersion technique. All petals of individual, intact orchid flowers were dipped into treatment solution and allowed to dry in Petri dishes. Treated petals were placed into individual re-sealable plastic along with about 20 adult thrips. All test arenas were held under continuous light and a temperature of about 28° C. for duration of the assay. After 3 days, the numbers of live thrips were counted on each petal. The percent mortality was recorded 72 hours after treatment.

[3] = tested on: boll weevil (Anthonomus grandis); test: Action on boll weevil (Anthonomus grandis), 96-well microtiter plate diet test; conditions: 120 h, egg and larval mortality after 5 days, read-out: mortality in comparison with untreated controls
Method: For evaluating control of boll weevil (Anthonomus grandis) the test unit consisted of 96-well-microtiter plates containing an insect diet and 5-10 A. grandis eggs.
The compounds were formulated using a solution containing 75% v/v water and 25% v/v DMSO. Different concentrations of formulated compounds were sprayed onto the insect diet at 5 μl, using a custom built micro atomizer, at two replications.
After application, microtiter plates were incubated at about 25±1° C. and about 75±5% relative humidity for 5 days. Egg and larval mortality was then visually assessed.

[4] = tested on: tobacco budworm (Heliothis virescens); test: Action on tobacco budworm (Heliothis virescens), 96-well microtiter plate diet test; conditions: 120 h, egg and larval mortality after 5 days, read-out: mortality in comparison with untreated controls
Method: For evaluating control of tobacco budworm (Helliothis virescens) the test unit consisted of 96-well-microtiter plates containing an insect diet and 15-25 H. virescens eggs.
The compounds were formulated using a solution containing 75% v/v water and 25% v/v DMSO. Different concentrations of formulated compounds were sprayed onto the insect diet at 10 μl, using a custom built micro atomizer, at two replications.
After application, microtiter plates were incubated at about 28±1° C. and about 80±5% relative humidity for 5 days. Egg and larval mortality was then visually assessed.

[5] = tested on: Diamond Back Moth (Plutella xylostella); test: Action on diamond back moth (Plutella xylostella), cabbage leaf dip; conditions: foliar, 3rd instar larvae on dipped cabbage leaves, 72 hours after treatment, read-out: mortality in comparison with untreated controls
Method: The active compound is dissolved at the desired concentration in a mixture of 1:1 (vol:vol) distilled water:acetone. Surfactant (Kinetic® HV) is added at a rate of 0.01% (vol/vol).The test solution is prepared at the day of use.
Leaves of cabbage were dipped in test solution and air-dried. Treated leaves were placed in petri dishes lined with moist filter paper and inoculated with ten 3rd instar larvae. Mortality was recorded 72 hours after treatment. Feeding damages were also recorded using a scale of 0-100%.

[6] = tested on: Southern Armyworm (Spodoptera eridania), 2nd Instar Larvae; test: Action on southern armyworm (Spodoptera eridania), 2nd instar larvae, sprayed lima bean plants; conditions: 96 h, 2nd instar larvae on lima bean, 4 days after treatment, read-out: mortality in comparison with untreated controls
Method: The active compounds were formulated by a Tecan liquid handler in 100% cyclohexanone as a 10,000 ppm solution supplied in tubes. The 10,000 ppm solution was serially diluted in 100% cyclohexanone to make interim solutions. These served as stock solutions for which final dilutions were made by the Tecan in 50% acetone:50% water (v/v) into 10 or 20 ml glass vials. A nonionic surfactant (Kinetic®) was included in the solution at a volume of 0.01% (v/v). The vials were then inserted into an automated electrostatic sprayer equipped with an atomizing nozzle for application to plants/insects.
Lima bean plants (variety Sieva) were grown 2 plants to a pot and selected for treatment at the 1st true leaf stage. Test solutions were sprayed onto the foliage by an automated electrostatic plant sprayer equipped with an atomizing spray nozzle. The plants were dried in the sprayer fume hood and then removed from the sprayer. Each pot was placed into perforated plastic bags with a zip closure. About 10 to 11 armyworm larvae were placed into the bag and the bags zipped closed. Test plants were maintained in a growth room at about 250C and about 20-40% relative humidity for 4 days, avoiding direct exposure to fluorescent light (24 hour photoperiod) to prevent trapping of heat inside the bags. Mortality and reduced feeding were assessed 4 days after treatment, compared to untreated control plants.

| Structure (SMILES) | mortality at 800 ppm [1] [%] | mortality at 500 ppm [2] [%] | mortality at 800 ppm [3] [%] | mortality at 800 ppm [4] [%] | mortality at 500 ppm [5] [%] | mortality at 300 ppm [6] [%] |
| --- | --- | --- | --- | --- | --- | --- |
| CC(/C=N/NC(=S)Nc1ccccc1C(C)C)=C\c1cnc(Nc2ccc(OC(F)(F)F)cc2)nc1 [Compound C-1, 1-(2-isopropylphenyl)-3-[(E)-[(E)-2-methyl-3-[2-[4-(trifluoromethoxy)anilino]pyrimidin-5-yl]prop-2-enylidene]amino]thiourea] | ≥ 75 | ≥ 75 | ≥ 75 | ≥ 75 | ≥ 75 | ≥ 75 |
| CC(/C=N/NC(=S)Nc1c(C)cccc1C)=C\c1cnc(Nc2ccc(OC(F)(F)F)cc2)nc1 [Compound C-2, 1-(2,6-dimethylphenyl)-3-[(E)-[(E)-2-methyl-3-[2-[4-(trifluoromethoxy)anilino]pyrimidin-5-yl]prop-2-enylidene]amino]thiourea] | ≥ 75 |  | ≥ 75 | ≥ 75 | ≥ 75 | ≥ 75 |
| CC(C=N/N=C1\SCC(=O)N1c1c(C)cccc1C)=Cc1cnc(Nc2ccc(OC(F)(F)F)cc2)nc1 [Compound C-4, (2Z)-3-(2,6-dimethylphenyl)-2-[(2-methyl-3-[2-[4-(trifluoromethoxy)anilino]pyrimidin-5-yl]prop-2-enylidene]hydrazono]thiazolidin-4-one] | ≥ 75 |  | ≥ 75 | ≥ 75 | ≥ 75 | ≥ 75 |
| CC(C)c1ccccc1N1C(=O)CS/C1=N\N=C\C(=O)N(C)c1cnc(N(C)c2ccc(OC(F)(F)F)cc2)nc1 [Compound C-10, (2E)-2-[(Z)-[3-(2-isopropylphenyl)-4-oxo-thiazolidin-2-ylidene]hydrazono]-N-methyl-N-[2-[N-methyl-4-(trifluoromethoxy)anilino]pyrimidin-5-yl]acetamide] |  |  |  | ≥ 75 | ≥ 75 | ≥ 75 |
| CC(C)c1ccccc1N1C(=O)CS/C1=N\N=C\C(=O)Nc1cnc(N(C)c2ccc(OC(F)(F)F)cc2)nc1 [Compound C-11, (2E)-2-[(Z)-[3-(2-isopropylphenyl)-4-oxo-thiazolidin-2-ylidene]hydrazono]-N-[2-[N-methyl-4-(trifluoromethoxy)anilino]pyrimidin-5-yl]acetamide] |  |  |  | ≥ 75 | ≥ 75 | ≥ 75 |
| CC(C)c1ccccc1NC(=S)N/N=C/C(=O)Nc1cnc(N(C)c2ccc(OC(F)(F)F)cc2)nc1 [Compound C-13, (2E)-2-[(2-isopropylphenyl)carbamothioylhydrazono]-N-[2-[N-methyl-4-(trifluoromethoxy)anilino]pyrimidin-5-yl]acetamide] |  |  |  | ≥ 75 | ≥ 75 | ≥ 75 |
| CC(C)c1ccccc1N1CC(=O)N(/N=C/C=C/c2cnc(N(C)c3ccc(OC(F)(F)F)cc3)nc2)C1=O [Compound C-14, 1-(2-isopropylphenyl)-3-[(E)-[(E)-3-[2-[N-methyl-4-(trifluoromethoxy)anilino]pyrimidin-5-yl]prop-2-enylidene]amino]imidazolidine-2,4-dione] |  | ≥ 75 | ≥ 75 | ≥ 75 | ≥ 75 |  |
| CC(C)c1ccccc1NC(=S)N/N=C/COc1cnc(N(C)c2ccc(OC(F)(F)F)cc2)nc1 [Compound C-18, 1-(2-isopropylphenyl)-3-[(E)-2-[2-[N-methyl-4-(trifluoromethoxy)anilino]pyrimidin-5-yl]oxyethylideneamino]thiourea] |  |  |  |  | ≥ 75 | ≥ 75 |
| CC(C)c1ccccc1N1C(=O)CS/C1=N\N=C\COc1cnc(N(C)c2ccc(OC(F)(F)F)cc2)nc1 [Compound C-19, (2Z)-3-(2-isopropylphenyl)-2-[(E)-2-[2-[N-methyl-4-(trifluoromethoxy)anilino]pyrimidin-5-yl]oxyethylidenehydrazono]thiazolidin-4-one] |  |  |  |  | ≥ 75 | ≥ 75 |
| CC(/C=N/NC(=S)Nc1ccccc1C(C)C)Oc1cnc(N(C)c2ccc(OC(F)(F)F)cc2)nc1 (stereo not shown) [Compound C-20, 1-(2-isopropylphenyl)-3-[(E)-2-[2-[N-methyl-4-(trifluoromethoxy)anilino]pyrimidin-5-yl]oxypropylideneamino]thiourea] |  |  |  |  | ≥ 75 |  |
| CC(/C=N/N=C1\SCC(=O)N1c1ccccc1C(C)C)Oc1cnc(N(C)c2ccc(OC(F)(F)F)cc2)nc1 (stereo not shown) [Compound C-21, (2Z)-3-(2-isopropylphenyl)-2-[(E)-2-[2-[N-methyl-4-(trifluoromethoxy)anilino]pyrimidin-5-yl]oxypropylidenehydrazono]thiazolidin-4-one] |  |  |  |  | ≥ 75 |  |
| Cc1nc(N(C)c2ccc(OC(F)(F)F)cc2)ncc1CC(C)/C=N/N=C1\SCC(=O)N1c1ccccc1C(C)C (stereo not shown) [Compound C-24, (2Z)-3-(2-isopropylphenyl)-2-[(E)-[2-methyl-3-[4-methyl-2-[N-methyl-4-(trifluoromethoxy)anilino]pyrimidin-5-yl]propylidene]hydrazono]thiazolidin-4-one] |  |  |  | ≥ 75 | ≥ 75 |  |
| CC(/C=N/N=C1\SCC(=O)N1c1ccccc1C(C)C)Oc1ccc(N(C)c2ccc(OC(F)(F)F)cc2)nn1 (stereo not shown) [Compound C-28, (2Z)-3-(2-isopropylphenyl)-2-[(E)-2-[6-[N-methyl-4-(trifluoromethoxy)anilino]pyridazin-3-yl]oxypropylidenehydrazono]thiazolidin-4-one] |  |  |  |  | ≥ 75 |  |
| CC(C)c1ccccc1N1C(=O)CS/C1=N\N=C\COc1ccc(N(C)c2ccc(OC(F)(F)F)cc2)nn1 [Compound C-29, (2Z)-3-(2-isopropylphenyl)-2-[(E)-2-[6-[N-methyl-4-(trifluoromethoxy)anilino]pyridazin-3-yl]oxyethylidenehydrazono]thiazolidin-4-one] |  |  |  |  | ≥ 75 |  |
| Cc1cc(N(C)c2ccc(OC(F)(F)F)cc2)nc(C)c1OC/C=N/NC(=S)Nc1ccccc1C(C)C [Compound C-30, 1-[(E)-2-[[2,4-dimethyl-6-[N-methyl-4-(trifluoromethoxy)anilino]-3-pyridyl]oxy]ethylideneamino]-3-(2-isopropylphenyl)thiourea] |  |  |  | ≥ 75 | ≥ 75 |  |
| Cc1cc(N(C)c2ccc(OC(F)(F)F)cc2)nc(C)c1OC/C=N/N=C1\SCC(=O)N1c1ccccc1C(C)C [Compound C-31, (2Z)-2-[(E)-2-[[2,4-dimethyl-6-[N-methyl-4-(trifluoromethoxy)anilino]-3-pyridyl]oxy]ethylidenehydrazono]-3-(2-isopropylphenyl)thiazolidin-4-one] | ≥ 75 |  | ≥ 75 | ≥ 75 | ≥ 75 | ≥ 75 |

Reference: US20200077658A1, “Pesticidal Compounds” (BASF SE, priority 2016, published 2020)
